Measured values from US10131652B2, “Pyrimidinyloxy benzene derivatives as herbicides” (E. I. DU PONT DE NEMOURS AND COMPANY, priority 2014, dated 2018).
Like-named read-outs stand apart in the source and are kept apart here.

How the values were obtained:
Assay in all cases: Test E pre-/postemergence plant response
Assay type in all cases: in vivo
[1] = system: spring wheat (Triticum aestivum); settings: post-emergence, Postemergence, scale 0 to 100, read-out: Plant response rating, Wheat, Spring
Summary of the method: (§1)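 Pre-emergence: seeds sown in silt loam soil and sprayed with test chemicals in a non-phytotoxic solvent/surfactant mix. Post-emergence: plants at 2–18 cm (1- to 4-leaf stage) in peat/vermiculite medium treated with the same formulation. Visual rating versus controls after 7–21 days, 0 (no effect) to 100 (complete control).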

[2] = system: speedwell (bird's-eye speedwell, Veronica persica); settings: scale 0 to 100, read-out: Plant response rating, Speedwell; for pest or weed control at 16 g/ha: 16 g ai/ha; for pest or weed control at 62 g/ha: 62 g ai/ha; for pest or weed control at 125 g/ha: 125 g ai/ha
Summary of the method: as §1

[3] = system: galium (catchweed bedstraw, Galium aparine); settings: scale 0 to 100, read-out: Plant response rating, Galium; for pest or weed control at 16 g/ha: 16 g ai/ha; for pest or weed control at 31 g/ha: 31 g ai/ha; for pest or weed control at 62 g/ha: 62 g ai/ha; for pest or weed control at 125 g/ha: 125 g ai/ha
Summary of the method: as §1

[4] = system: wild radish (Raphanus raphanistrum); settings: scale 0 to 100, read-out: Plant response rating, Radish, Wild; for pest or weed control at 16 g/ha: 16 g ai/ha; for pest or weed control at 31 g/ha: 31 g ai/ha; for pest or weed control at 62 g/ha: 62 g ai/ha; for pest or weed control at 125 g/ha: 125 g ai/ha
Summary of the method: as §1

[5] = system: winter wheat (Triticum aestivum); settings: post-emergence, Postemergence, scale 0 to 100, read-out: Plant response rating, Wheat, Winter
Summary of the method: as §1

[6] = system: lambsquarters (Chenopodium album); settings: scale 0 to 100, read-out: Plant response rating, Lambsquarters; for pest or weed control at 16 g/ha: 16 g ai/ha; for pest or weed control at 31 g/ha: 31 g ai/ha; for pest or weed control at 62 g/ha: 62 g ai/ha; for pest or weed control at 125 g/ha: 125 g ai/ha
Summary of the method: as §1

[7] = system: field violet (Viola arvensis); settings: scale 0 to 100, read-out: Plant response rating, Field Violet; for pest or weed control at 31 g/ha: 31 g ai/ha; for pest or weed control at 125 g/ha: 125 g ai/ha
Summary of the method: as §1

[8] = system: bluegrass (annual bluegrass, Poa annua); settings: scale 0 to 100, read-out: Plant response rating, Bluegrass; for pest or weed control at 16 g/ha: 16 g ai/ha; for pest or weed control at 31 g/ha: 31 g ai/ha; for pest or weed control at 62 g/ha: 62 g ai/ha; for pest or weed control at 125 g/ha: 125 g ai/ha
Summary of the method: as §1

[9] = system: spring barley (Hordeum vulgare); settings: post-emergence, Postemergence
Summary of the method: as §1

[10] = system: Italian ryegrass (Lolium multiflorum); settings: scale 0 to 100, read-out: Plant response rating, Ryegrass, Italian; for pest or weed control at 16 g/ha: 16 g ai/ha; for pest or weed control at 31 g/ha: 31 g ai/ha; for pest or weed control at 62 g/ha: 62 g ai/ha; for pest or weed control at 125 g/ha: 125 g ai/ha
Summary of the method: as §1

[11] = system: chickweed (common chickweed, Stellaria media); settings: scale 0 to 100, read-out: Plant response rating, Chickweed; for pest or weed control at 16 g/ha: 16 g ai/ha; for pest or weed control at 31 g/ha: 31 g ai/ha; for pest or weed control at 62 g/ha: 62 g ai/ha; for pest or weed control at 125 g/ha: 125 g ai/ha
Summary of the method: as §1

FC(F)(F)c1cc(-c2ccccc2Oc2ncc(Cl)cn2)no1 [Compound 200, 5-chloro-2-[2-[5-(trifluoromethyl)-3-isoxazolyl]phenoxy]pyrimidine]
plant injury at 16 g/ha ([1]; 16 g ai/ha): 5%
plant injury at 31 g/ha ([1]; 31 g ai/ha): 10%
plant injury at 62 g/ha ([1]; 62 g ai/ha): 20%
plant injury at 125 g/ha ([1]; 125 g ai/ha): 35%
pest or weed control at 16 g/ha ([2]; post-emergence, Postemergence): 70%
pest or weed control at 31 g/ha ([2]; post-emergence, 31 g ai/ha, Postemergence): 100%
pest or weed control at 62 g/ha ([2]; post-emergence, Postemergence): 100%
pest or weed control at 125 g/ha ([2]; post-emergence, Postemergence): 100%
pest or weed control at 16 g/ha ([2]; pre-emergence, Preemergence): 100%
pest or weed control at 62 g/ha ([2]; pre-emergence, Preemergence): 100%
pest or weed control at 125 g/ha ([2]; pre-emergence, Preemergence): 100%
pest or weed control at 16 g/ha ([3]; post-emergence, Postemergence): 70%
pest or weed control at 31 g/ha ([3]; post-emergence, Postemergence): 75%
pest or weed control at 62 g/ha ([3]; post-emergence, Postemergence): 75%
pest or weed control at 125 g/ha ([3]; post-emergence, Postemergence): 90%
pest or weed control at 16 g/ha ([3]; pre-emergence, Preemergence): 15%
pest or weed control at 31 g/ha ([3]; pre-emergence, Preemergence): 25%
pest or weed control at 62 g/ha ([3]; pre-emergence, Preemergence): 55%
pest or weed control at 125 g/ha ([3]; pre-emergence, Preemergence): 100%
pest or weed control at 16 g/ha ([4]; post-emergence, Postemergence): 65%
pest or weed control at 31 g/ha ([4]; post-emergence, Postemergence): 80%
pest or weed control at 62 g/ha ([4]; post-emergence, Postemergence): 85%
pest or weed control at 125 g/ha ([4]; post-emergence, Postemergence): 95%
pest or weed control at 16 g/ha ([4]; pre-emergence, Preemergence): 80%
pest or weed control at 31 g/ha ([4]; pre-emergence, Preemergence): 70%
pest or weed control at 62 g/ha ([4]; pre-emergence, Preemergence): 95%
pest or weed control at 125 g/ha ([4]; pre-emergence, Preemergence): 95%
plant injury at 16 g/ha ([5]; 16 g ai/ha): 0%
plant injury at 31 g/ha ([5]; 31 g ai/ha): 5%
plant injury at 62 g/ha ([5]; 62 g ai/ha): 15%
plant injury at 125 g/ha ([5]; 125 g ai/ha): 25%
pest or weed control at 16 g/ha ([6]; post-emergence, Postemergence): 75%
pest or weed control at 31 g/ha ([6]; post-emergence, Postemergence): 85%
pest or weed control at 62 g/ha ([6]; post-emergence, Postemergence): 90%
pest or weed control at 125 g/ha ([6]; post-emergence, Postemergence): 95%
pest or weed control at 16 g/ha ([6]; pre-emergence, Preemergence): 10%
pest or weed control at 31 g/ha ([6]; pre-emergence, Preemergence): 85%
pest or weed control at 62 g/ha ([6]; pre-emergence, Preemergence): 100%
pest or weed control at 125 g/ha ([6]; pre-emergence, Preemergence): 100%
pest or weed control at 16 g/ha ([7]; post-emergence, 16 g ai/ha, Postemergence): 70%
pest or weed control at 31 g/ha ([7]; post-emergence, Postemergence): 80%
pest or weed control at 62 g/ha ([7]; post-emergence, 62 g ai/ha, Postemergence): 75%
pest or weed control at 125 g/ha ([7]; post-emergence, Postemergence): 95%
pest or weed control at 31 g/ha ([7]; pre-emergence, Preemergence): 50%
pest or weed control at 125 g/ha ([7]; pre-emergence, Preemergence): 100%
pest or weed control at 16 g/ha ([8]; post-emergence, Postemergence): 20%
pest or weed control at 31 g/ha ([8]; post-emergence, Postemergence): 35%
pest or weed control at 62 g/ha ([8]; post-emergence, Postemergence): 55%
pest or weed control at 125 g/ha ([8]; post-emergence, Postemergence): 70%
pest or weed control at 16 g/ha ([8]; pre-emergence, Preemergence): 20%
pest or weed control at 31 g/ha ([8]; pre-emergence, Preemergence): 70%
pest or weed control at 62 g/ha ([8]; pre-emergence, Preemergence): 95%
pest or weed control at 125 g/ha ([8]; pre-emergence, Preemergence): 100%
plant injury at 16 g/ha ([9]; 16 g ai/ha, scale 0 to 100, read-out: Plant response rating, Barley, Spring): 10%
plant injury at 31 g/ha ([9]; 31 g ai/ha, scale 0 to 100, read-out: Plant response rating, Barley, Spring): 15%
plant injury at 62 g/ha ([9]; 62 g ai/ha, scale 0 to 100, read-out: Plant response rating, Barley, Spring): 25%
plant injury at 125 g/ha ([9]; 125 g ai/ha, scale 0 to 100 (0 no effect, 100 complete control), read-out: Plant response rating, Barley, Spring): 35%
pest or weed control at 16 g/ha ([10]; post-emergence, Postemergence): 5%
pest or weed control at 31 g/ha ([10]; post-emergence, Postemergence): 10%
pest or weed control at 62 g/ha ([10]; post-emergence, Postemergence): 25%
pest or weed control at 125 g/ha ([10]; post-emergence, Postemergence): 40%
pest or weed control at 16 g/ha ([10]; pre-emergence, Preemergence): 0%
pest or weed control at 31 g/ha ([10]; pre-emergence, Preemergence): 25%
pest or weed control at 62 g/ha ([10]; pre-emergence, Preemergence): 30%
pest or weed control at 125 g/ha ([10]; pre-emergence, Preemergence): 85%
pest or weed control at 16 g/ha ([11]; post-emergence, Postemergence): 65%
pest or weed control at 31 g/ha ([11]; post-emergence, Postemergence): 75%
pest or weed control at 62 g/ha ([11]; post-emergence, Postemergence): 100%
pest or weed control at 125 g/ha ([11]; post-emergence, Postemergence): 100%
pest or weed control at 16 g/ha ([11]; pre-emergence, Preemergence): 70%
pest or weed control at 31 g/ha ([11]; pre-emergence, Preemergence): 90%
pest or weed control at 62 g/ha ([11]; pre-emergence, Preemergence): 100%
pest or weed control at 125 g/ha ([11]; pre-emergence, Preemergence): 100%
